The record followed here is patent US11241011B2, “Microbiocidal quinoline (thio)carboxamide derivatives” (SYNGENTA PARTICIPATIONS AG, priority 2017, dated 2022).

One data set deals with Gaeumannomyces graminis. The experiment in a line: Gaeumannomyces graminis / liquid culture (take-all of cereals). The class given is cell-based. To be noted: 20 ppm, growth inhibition photometrically 4-5 days after application, vs untreated control. How it is done: Gaeumannomyces Graminis/Liquid Culture (Take-All of Cereals)
Mycelial fragments of the fungus from cryogenic storage were directly mixed into nutrient broth (PDB potato dextrose broth). After placing a (DMSO) solution of test compound into a microtiter plate (96-well format), the nutrient broth containing the fungal spores iss added. The test plates are incubated at 24° C. and the inhibition of growth is determined photometrically 4-5 days after application.

Turning to `O=C(Nc1cnc2c(F)cccc2c1)C(CC#CC1CC1)CC(F)(F)F` (stereo not shown) [Compound E-2, 5-cyclopropyl-N-(8-fluoro-3-quinolyl)-2-(2,2,2-trifluoroethyl)pent-4-ynamide], the melting point fell in the range of 182 to 184 °C.

Turning to `C#CCC(C)(CC(C)C)C(=O)Nc1cnc2c(F)cccc2c1` (stereo not shown) [Compound E-3, N-(8-fluoro-3-quinolyl)-2-isobutyl-2-methyl-pent-4-ynamide], the melting point lay within 125 to 127 °C.

For the molecule `CC#CCC(C)(CC(C)C)C(=O)Nc1cnc2c(F)cccc2c1` (stereo not shown) [Compound E-5, N-(8-fluoro-3-quinolyl)-2-isobutyl-2-methyl-hex-4-ynamide], the melting point was 139 to 140 °C. In addition, the “control of Gaeumannomyces graminis” value in the data set on Gaeumannomyces graminis was “at least 80%”.
